The test system of assay [1] is mRNA. Briefly: mRNA synthesis by in vitro transcription (co-transcriptional capping), final product mass. The format is biochemical. The settings on record: obtained from 20 μL mRNA synthesis reaction system; T7 RNA Polymerase; cap analog 4 mM; 37 °C, 2 to 3 hours. As to the method: (§1) 1) The plasmids were linearized and the DNA templates were purified.
(§2) 2) The mRNA was synthesized by in vitro transcription, using 11 cap structures of the present disclosure, positive control CleanCap®AG (3′OMe) (Trilink, N-7413), negative control (uncapped mRNA) and blank control (DNase/RNase-Free water), respectively.
(§3) The reaction was carried out at 37 °C for 2 to 3 hours. TURBO DNase digestion was carried out for 15 minutes. The mRNA was precipitated by LiC for 30 min or more or overnight, and the mRNA precipitate was washed with 75% ethanol, dried briefly to evaporate the ethanol, and the mRNA was redissolved with RNase-Free water.
3) The transcription product was purified, and the reaction yield was calculated to provide the test results of some compounds, as shown in Table 2.

Assay [2] concerns mRNA. Nature of the assay: Capping efficiency of mRNA by LC-MS. The format is biochemical. The following applies: cap analog 4 mM in in vitro transcription, RNase H cleaved 5′ fragment. As for the experimental part: as §1, §2, §3
Gradient annealing was performed in a PCR instrument: […]
5) Magnetic beads were pre-treated and bound to probes.
100 μL of magnetic beads were taken and placed on a magnetic stand. The storage solution was discarded, and 100 μL of 1*BW solution was added thereto. After mixing well, the mixture was placed on the magnetic stand, and the supernatant was discarded. The wash was carried out three times in the same way. 100 μL of wash A buffer was added thereto. After mixing well, the mixture was placed on the magnetic stand, and the supernatant was discarded. The wash was carried out three times in the same way. 100 μL of wash B buffer was added thereto. After mixing well, the mixture was placed on the magnetic stand, and the supernatant was discarded. The wash was carried out three times in the same way. 120 μL of the sample was added to the magnetic bead solution and incubated for 30 min at room temperature with gentle mixing while incubating.
6) The mRNA was cut to obtain the 5′ single-stranded sequence of mRNA bound to probes.
20 μL of RNase H (5 U/μL) was added thereto, incubated at 37 °C for 3 hours, and mixed well every half hour. 100 μL of 1*BW solution was added thereto. After mixing well, the mixture was placed on the magnetic stand, and the supernatant was discarded. The wash was carried out three times in the same way. 100 μL of deionized water solution was added thereto. After mixing well, the mixture was placed on the magnetic stand, and the supernatant was discarded. The wash was carried out three times in the same way. 100 μL of 75% methanol was added thereto at 80 °C, then the mixture was heated to 80 °C on a heating plate and held for 3 min, placed on the magnetic stand, and the supernatant was aspirated. The sample was dried at room temperature for 45 min to 10 μL using an evaporative centrifuge and then resuspended in 50 μL of 100 μM EDTA/1% MeOH for LC-MS analysis.
LC-MS was used to analyze the capping efficiency of mRNA synthesized by analogues with different cap structures. The capping efficiency results of some compounds in the detection results are now provided.

Another assay deals with HEK293T cells. Briefly: Expression efficiency of capped luciferase mRNAs in HEK293T cells. The following applies: 6 h after transfection of capped luciferase mRNA into HEK293T cells; ratio to N-7413 (= 1). The format is cell-based. As for the experimental part:
2. Evaluation of Expression Efficiency of Different Capped Luciferase mRNAs in HEK293T Cells
1) HNE293T cells were cultured in DMEM medium containing 10% FBS and penicillin/streptomycin at 37 °C and 5% CO2.
2) The cultured HEK293T cells were spread in a 96-well plate with 1.25×10^4 cells per well.
3) After the cells completely adhered to the wall, 0.5 μg of a mixture of mRNA sample and Polyplus jetMESSENGER was added to each well of cells, and cultured at 37 °C and 5% CO2 for 6 hours.
4) The growth medium was removed from the cells to be tested and the cells were rinsed with PBS. After centrifugation to remove PBS, 50 μL of 1× lysis buffer was added thereto, and cells and all liquid were transferred to a microcentrifuge tube, and then centrifuged at 12000×g and 4 °C for 2 min.
5) The supernatant was transferred to a new tube. Fluorescence readings were detected using the ONE-Glo Luciferase Assay System Kit.
3. All compounds, N-7413, negative control and blank control were tested under the same conditions, and some experimental results in the test results are shown in Table 5.
The relative fluorescence reading results (6 h) after transfection of capped mRNA into 293T cells are now provided, as shown in Table 5. It can be seen from the FIGURE that the mRNA capped by the compound of the present disclosure has a high expression level, and some cap structures can enable higher expression efficiency of mRNA compared to N-7413.

Each structure is given as a SMILES string.

In the assay with mRNA [1], `CO[C@@H]1[C@H](OP(=O)(O)OC[C@H]2O[C@@H](n3cnc4c(=O)[nH]c(N)nc43)[C@H](O)[C@@H]2O)[C@@H](COP(=O)(O)OP(=O)([O-])OP(=O)(O)OC[C@H]2O[C@@H](n3c[n+](C)c4c(=O)[nH]c(N)nc43)[C@H](O)[C@@H]2C(=O)N(C)C)O[C@H]1n1cnc2c(N)ncnc21` [Compound 193] came in with a Final product mass of 105 µg. The Capping efficiency entry with mRNA [2] was “A (100% > A ≥ 95%)”. Besides, the Relative fluorescence reading in the assay on HEK293T cells amounted to 1.64.
`CO[C@@H]1[C@H](OCOC[C@H]2O[C@@H](n3cnc4c(=O)[nH]c(N)nc43)[C@H](O)[C@@H]2O)[C@@H](COP(=O)(O)OP(=O)(O)OP(=O)(O)OC[C@H]2O[C@@H](n3c[n+](C)c4c(=O)[nH]c(N)nc43)[C@H](O)[C@@H]2C)O[C@H]1n1cnc2c(N)ncnc21` [Compound 57]: in the assay with mRNA [1], the Final product mass came to 90 µg. In addition, the Capping efficiency result in the assay on mRNA [2] was “C (90% > C ≥ 80%)”. Moreover, the Relative fluorescence reading with HEK293T cells turned out to be 0.88.
`CO[C@@H]1[C@H](OP(=O)(O)OC[C@H]2O[C@@H](n3cnc4c(=O)[nH]c(N)nc43)[C@H](O)[C@@H]2O)[C@@H](COP(=O)(O)OP(=O)(O)OP(=O)(O)OC[C@H]2O[C@@H](n3c[n+](C)c4c(=O)[nH]c(N)nc43)[C@H](O)[C@@H]2CCF)O[C@H]1n1cnc2c(N)ncnc21` [Compound 19] yielded a Final product mass in the assay with mRNA [1] of 137 µg. The Capping efficiency entry with mRNA [2] is “A (100% > A ≥ 95%)”. The Relative fluorescence reading in the assay with HEK293T cells stood at 1.52.
Regarding `CO[C@@H]1[C@H](OP(=O)(O)OC[C@H]2O[C@@H](n3cnc4c(=O)[nH]c(N)nc43)[C@H](O)[C@@H]2O)[C@@H](COP(=O)(O)OP(=O)(O)OP(=O)(O)OC[C@H]2O[C@@H](n3c[n+](C)c4c(=O)[nH]c(N)nc43)[C@H](O)[C@@H]2NC(C)=O)O[C@H]1n1cnc2c(N)ncnc21` [Compound 289], the Final product mass in the assay with mRNA [1] was 113 µg. In addition, the Capping efficiency result with mRNA [2] is “A (100% > A ≥ 95%)”. Moreover, in the assay with HEK293T cells, the Relative fluorescence reading is recorded as 1.70.
Compound `CCC[C@H]1[C@@H](O)[C@H](n2c[n+](C)c3c(=O)[nH]c(N)nc32)O[C@@H]1COP(=O)(O)OP(=O)(O)OP(=O)(O)OC[C@H]1O[C@@H](n2cnc3c(N)ncnc32)[C@H](OC)[C@@H]1OP(=O)(O)OC[C@H]1O[C@@H](n2cnc3c(=O)[nH]c(N)nc32)[C@H](O)[C@@H]1O.[Na+]` [Compound 5] had a Final product mass with mRNA [1] of 117 µg. Also, the Capping efficiency result in the assay on mRNA [2] was “A (100% > A ≥ 95%)”. The Relative fluorescence reading with HEK293T cells stood at 1.85.

(Values after US20260365690A1, “COMPOUND FOR RNA CAPPING AND USE THEREOF” (GUANGZHOU HENOVCOM BIOSCIENCE CO., LTD., priority 2022, published 2026).)
